US10294202B2, “Pyrrolidinones as herbicides” (FMC Corporation, priority 2013, dated 2019)

How the values were obtained:
[1] = tested on: kochia; assay: Test A pre-/postemergence herbicide test; assay type: in vivo, Kochia scoparia
In short: (§1)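 Scoring was visual, relative to untreated controls, on a 0–100 scale after about 10 greenhouse days. Preemergence treatment used a directed soil spray over seeded loam/sand; postemergence treatment targeted one- to two-leaf plants of 2–10 cm.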

[2] = tested on: oat, wild; assay: Test C pre-/postemergence herbicide test; assay type: in vivo, Avena fatua; conditions: Postemergence
In short: (§2)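 Response scores range from 0, meaning no effect, to 100, meaning complete control, assigned visually by comparison with controls roughly two weeks (13 to 15 days) after spraying. Applications were made preemergence to seeded loam–sand soil and postemergence to 1- to 4-leaf plants.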

[3] = tested on: ragweed; assay: Test A pre-/postemergence herbicide test; assay type: in vivo, Ambrosia elatior
In short: as §1

[4] = tested on: galium; assay: Test A postemergence herbicide test; assay type: in vivo, Galium aparine
In short: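 Potted in loam soil/sand blend; postemergence application at 1–2 leaf stage (2–10 cm). Greenhouse ~10 d. Visual injury vs untreated, 0–100 scale; 100 = complete control.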

[5] = tested on: ryegrass, Italian; assay: Test C pre-/postemergence herbicide test; assay type: in vivo, Lolium multiflorum
In short: as §2

[6] = tested on: rice; assay: Test C flooded paddy test; assay type: in vivo, Oryza sativa; conditions: Flood
In short: (§3)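 Visual ratings from 0, no effect, to 100, complete control, were made against untreated controls after 13–15 greenhouse days. Compounds had gone straight into paddy water 3 cm above the soil, kept at that depth, on 2-leaf-stage plants.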

[7] = tested on: sedge, umbrella; assay: Test C flooded paddy test; assay type: in vivo, Cyperus difformis; conditions: Flood
In short: as §3

[8] = tested on: wheat (winter wheat); assay: Test C pre-/postemergence herbicide test; assay type: in vivo, Triticum aestivum
In short: as §2

[9] = 125 g ai/ha, visual rating, 0 to 100 scale, 0 no effect, 100 complete control, approximately 10 days, preemergence
[10] = Postemergence, 125 g ai/ha, 0 to 100 scale, 0 is no effect, 100 is complete control
[11] = preemergence, 500 g ai/ha, 0 to 100 scale, 0 is no effect and 100 is complete control
[12] = 31 g ai/ha, scale 0 to 100 (0 no effect, 100 complete control)
[13] = 62 g ai/ha, scale 0 (no effect) to 100 (complete control)
[14] = 125 g ai/ha, scale 0 to 100 (0 no effect, 100 complete control)
[15] = 250 g ai/ha, scale 0 to 100 (0 no effect, 100 complete control)
[16] = 125 g ai/ha, 0 to 100 scale, 0 is no effect, 100 is complete control
[17] = Postemergence, 31 g ai/ha, scale 0 to 100 (0 no effect, 100 complete control)
[18] = Postemergence, 62 g ai/ha, scale 0 (no effect) to 100 (complete control)
[19] = Postemergence, 125 g ai/ha, scale 0 to 100 (0 no effect, 100 complete control)
[20] = Postemergence, 250 g ai/ha, scale 0 to 100 (0 no effect, 100 complete control)
[21] = Preemergence, 31 g ai/ha, scale 0 to 100, 0 is no effect and 100 is complete control
[22] = Preemergence, 62 g ai/ha, scale 0 to 100 (0 no effect, 100 complete control)
[23] = Preemergence, 125 g ai/ha, scale 0 to 100 (0 no effect, 100 complete control)
[24] = 31 g ai/ha, scale of 0 to 100 where 0 is no effect and 100 is complete control, 13 to 15 days
[25] = 62 g ai/ha, scale of 0 to 100 where 0 is no effect and 100 is complete control, 13 to 15 days
[26] = 125 g ai/ha, scale of 0 to 100 where 0 is no effect and 100 is complete control, 13 to 15 days
[27] = 250 g ai/ha, scale of 0 to 100 where 0 is no effect and 100 is complete control, 13 to 15 days
[28] = Postemergence, 500 g ai/ha, 0 to 100 scale (0 no effect, 100 complete control)
[29] = Preemergence, 125 g ai/ha, 0 to 100 scale where 0 is no effect and 100 is complete control
[30] = Postemergence, 125 g ai/ha, visual rating on 0 to 100 scale (0 no effect, 100 complete control), approx. 10 days
[31] = 500 g ai/ha, 0 to 100 scale (0 no effect, 100 complete control)
[32] = Preemergence, 500 g ai/ha, visual rating on 0 to 100 scale (0 no effect, 100 complete control)
[33] = Preemergence, 125 g ai/ha, scale 0 to 100

SMILES	Plant response rating, Kochia [1, 10]	Plant response rating, Kochia [1, 11]	Plant response rating, Oat, Wild [2, 12]	Plant response rating, Oat, Wild [2, 13]	Plant response rating, Oat, Wild [2, 14]	Plant response rating, Oat, Wild [2, 15]	Plant response rating, Ryegrass, Italian [5, 17]	Plant response rating, Ryegrass, Italian [5, 18]	Plant response rating, Ryegrass, Italian [5, 19]	Plant response rating, Ryegrass, Italian [5, 20]	Ryegrass, Italian plant response rating [5, 22]	Plant response rating, Rice [6, 26]	Plant response rating, Rice [6, 27]	Plant response rating, Sedge, Umbrella [7, 26]	Plant response rating, Sedge, Umbrella [7, 27]	Plant response rating, Wheat [8, 17]	Plant response rating, Wheat [8, 18]	Plant response rating, Wheat [8, 19]	Plant response rating, Wheat [8, 20]	Wheat plant response rating [8, 22]	further results
O=C1NCC(c2cccc(OC(F)F)c2)C1C(=O)Nc1ccccc1F (stereo not drawn) [Compound 223]	50	80	0	0	0	0	0	0	0	0	0	0	0	0	0	0	0	0	0	5	Plant response rating, Kochia [1, 9]: 30; Kochia plant response rating (0 to 100 scale, 0 is no effect, 100 is complete control) ([1]; Postemergence, 500 g ai/ha): 70; Plant response rating, Ragweed [3, 9]: 30; Plant response rating, Ragweed [3, 10]: 0; Ragweed plant response rating (0 to 100 scale, 0 is no effect, 100 is complete control) ([3]; Postemergence, 500 g ai/ha): 30; Plant response rating, Ragweed [3, 11]: 50; Plant response rating, Galium [4, 16]: 50; Galium plant response rating (0 to 100 scale, 0 is no effect, 100 is complete control) ([4]; 500 g ai/ha): 60; Ryegrass, Italian plant response rating [5, 21]: 0; Plant response rating, Ryegrass, Italian [5, 23]: 10; Plant response rating (scale of 0 to 100), Ryegrass, Italian ([5]; Preemergence, 250 g ai/ha): 15; Plant response rating, Rice [6, 24]: 0; Plant response rating, Rice [6, 25]: 0; Plant response rating, Sedge, Umbrella [7, 24]: 0; Plant response rating, Sedge, Umbrella [7, 25]: 0; Wheat plant response rating [8, 21]: 0; Plant response rating, Wheat [8, 23]: 10; Plant response rating (scale of 0 to 100), Wheat ([8]; Preemergence, 250 g ai/ha): 35
O=C1NCC(c2cccc(Cl)c2)C1C(=O)Nc1cccc(F)c1F (racemic) [Compound 275]	50	80	0	0	0	5	0	0	5	25	40	0	10	0	0	0	0	0	0	45	Plant response rating, Kochia [1, 28]: 80; Plant response rating, Kochia [1, 29]: 60; Plant response rating, Ragweed [3, 30]: 30; Plant response rating, Ragweed [3, 28]: 30; Plant response rating, Ragweed [3, 29]: 20; Plant response rating, Ragweed [3, 11]: 40; Plant response rating, Galium [4, 16]: 60; Plant response rating, Galium [4, 31]: 70; Ryegrass, Italian plant response rating [5, 21]: 15; Plant response rating, Ryegrass, Italian [5, 23]: 50; Plant response rating (scale of 0 to 100), Ryegrass, Italian ([5]; Preemergence, 250 g ai/ha): 60; Plant response rating, Rice [6, 25]: 0; Plant response rating, Rice ([6]; 500 g ai/ha, scale 0 to 100): 10; Plant response rating, Sedge, Umbrella [7, 25]: 0; Plant response rating, Sedge, Umbrella ([7]; 500 g ai/ha, scale 0 to 100): 0; Wheat plant response rating [8, 21]: 5; Plant response rating (scale of 0 to 100), Wheat ([8]; Preemergence, 250 g ai/ha): 90
Cc1cccc(NC(=O)C2C(=O)NCC2c2cccc(C(F)(F)F)c2)c1 (stereo not drawn) [Compound 317]			0	0	0	0	0	0	0	0	0	0	0	0	0	0	0	0	0	0	Plant response rating, Kochia [1, 30]: 0; Plant response rating, Kochia [1, 28]: 0; Plant response rating, Kochia [1, 29]: 0; Kochia plant response rating [1, 32]: 0; Plant response rating, Ragweed [3, 30]: 0; Plant response rating, Ragweed [3, 28]: 0; Plant response rating, Ragweed [3, 29]: 0; Ragweed plant response rating [3, 32]: 0; Plant response rating, Galium ([4]; 125 g ai/ha, visual rating on 0 to 100 scale (0 no effect, 100 complete control), approx. 10 days): 0; Plant response rating, Galium [4, 31]: 0; Plant response rating, Ryegrass, Italian [5, 33]: 0; Plant response rating, Rice [6, 24]: 0; Plant response rating, Rice [6, 25]: 0; Plant response rating, Sedge, Umbrella [7, 24]: 0; Plant response rating, Sedge, Umbrella [7, 25]: 0; Plant response rating, Wheat [8, 33]: 0
O=C1NCC(c2cccc(C(F)(F)F)c2)C1C(=O)Nc1ccc(F)cc1F (racemic) [Compound 207]	0	30	0	0	0	0	0	0	0	0	0	15	15	0	0	0	0	0	0	0	Plant response rating, Kochia [1, 9]: 20; Kochia plant response rating (0 to 100 scale, 0 is no effect, 100 is complete control) ([1]; Postemergence, 500 g ai/ha): 0; Plant response rating, Ragweed [3, 9]: 0; Plant response rating, Ragweed [3, 10]: 0; Ragweed plant response rating (0 to 100 scale, 0 is no effect, 100 is complete control) ([3]; Postemergence, 500 g ai/ha): 0; Plant response rating, Ragweed [3, 11]: 20; Plant response rating, Galium [4, 16]: 0; Galium plant response rating (0 to 100 scale, 0 is no effect, 100 is complete control) ([4]; 500 g ai/ha): 50; Ryegrass, Italian plant response rating [5, 21]: 0; Plant response rating, Ryegrass, Italian [5, 23]: 0; Plant response rating (scale of 0 to 100), Ryegrass, Italian ([5]; Preemergence, 250 g ai/ha): 0; Plant response rating, Rice ([6]; 500 g ai/ha, scale 0 to 100): 15; Plant response rating, Rice ([6]; 1000 g ai/ha, scale 0 to 100): 15; Plant response rating, Sedge, Umbrella ([7]; 500 g ai/ha, scale 0 to 100): 0; Plant response rating, Sedge, Umbrella ([7]; 1000 g ai/ha, scale 0 to 100): 0; Wheat plant response rating [8, 21]: 0; Plant response rating, Wheat [8, 23]: 5; Plant response rating (scale of 0 to 100), Wheat ([8]; Preemergence, 250 g ai/ha): 45
